One assay has as its system Poria placenta. The assay is described as follows: Biological screening test (modified EN 113) of TBBA homologues. Format: cell-based. The note with it: 8 weeks exposure; for Protective Effect (retention of the active ingredient in the wood): waterborne. As to the method:
(§1) The following fungi were employed: Coniophora puteana (Brown rot fungus) and Poria placenta (Brown rot fungus). The following preservatives were tested: TBBF (waterborne), TBBE (waterborne), TBBZ (waterborne) and TBBS (waterborne).
(§2) Five concentrations of each preservative were tested: 3.0%, 2.0%, 1.0%, 0.1% and 0.05% (w/w). All wood blocks were of Scots pine sapwood (Pinus sylvestris) with a volume of 1 cm^3 (10 mm×10 mm×10 mm). Five replicates were used for each test specimen type and six virulence control specimens for each fungus and for each preservative were used as follows: • Treated test specimens: 2 (fungi)×5 (preservative concentrations)×1 (preservative)×5 (replicates)=50 test blocks • Untreated test specimens (for exposure alongside […] test blocks): 2 (fungi)×5 (preservative concentrations)×1 (preservative)×5 (replicates)=50 test blocks • Treated check test specimens: 1 (preservative)×5 (concentrations)×5 (replicates)=25 blocks
(§3) For all actives/preservatives in the test: • Virulence control specimens: 2 (fungi)×6 (replicates)=12 test blocks
(§4) After block treatments were completed, all the blocks were sterilized using ionizing radiation according to the conditions set out in European standard EN 113. The incubation period for the test (length of block exposure to the chosen basidiomycete fungi) was 8 weeks.
(§5) Weight changes for particular waterlogged specimens, when these were clearly unrepresentative of a group, were not included in the mean figures presented.

Another assay concerns Coniophora puteana. The assay is described as above. Format: cell-based. The note with it: 8 weeks exposure; for Protective Effect (retention of the active ingredient in the wood): waterborne. The procedure:
as §1, §2, §3, §4, §5

The mark [1] stands for this setting: TBBE waterborne 0.05% w/w, retention 0.4 kg/m^3.
Where [2] appears, read: TBBF waterborne 0.05% w/w, retention 0.4 kg/m^3.
Where [3] appears, read: TBBS waterborne 0.05% w/w, retention 0.4 kg/m^3.
[4] abbreviates: TBBS waterborne 0.1% w/w, retention 0.8 kg/m^3.
Where [5] appears, read: TBBZ waterborne 0.05% w/w, retention 0.4 kg/m^3, some waterlogging.

Molecules are shown by their SMILES.

Turning to `CC(c1cc(Br)c(O)c(Br)c1)c1cc(Br)c(O)c(Br)c1` [TBBE, 4,4′-Ethylidenebis(2,6-dibromophenol)], the “Corrected mean loss in mass (%)” value with Poria placenta (setting [1]) was “No Decay (0.89)”; with Poria placenta (TBBE waterborne 0.1% w/w, retention 0.8 kg/m^3), 28.67 (14.13) %; with Poria placenta (TBBE waterborne 1.0% w/w, retention 8.3 kg/m^3, some waterlogging), “No Decay (W)”; with Poria placenta (TBBE waterborne 2.0% w/w, retention 14.4 kg/m^3, some waterlogging) it was “No Decay (W)”; in the assay on Poria placenta (TBBE waterborne 3.0% w/w, retention 24.6 kg/m^3), “No Decay”; in the assay with Coniophora puteana (setting [1]), 22.96 (4.81) %. Moreover, the “Corrected mean loss in mass (%)” value was 26.57 (2.99) % with Coniophora puteana (TBBE waterborne 0.1% w/w, retention 0.7 kg/m^3); “No Decay” with Coniophora puteana (TBBE waterborne 1.0% w/w, retention 7.9 kg/m^3); “No Decay” in the assay on Coniophora puteana (TBBE waterborne 2.0% w/w, retention 14.7 kg/m^3); “No Decay” with Coniophora puteana (TBBE waterborne 3.0% w/w, retention 24.7 kg/m^3). Moreover, the “Protective Effect (retention of the active ingredient in the wood)” value (from here on “Protective Effect”) with Poria placenta is 0.8-8.3 kg/m^3; in the assay with Coniophora puteana it was 0.7-7.9 kg/m^3.
Take `Oc1c(Br)cc(Cc2cc(Br)c(O)c(Br)c2)cc1Br` [TBBF, Bis(4-hydroxy-3,5-dibromophenyl)methane]: the “Corrected mean loss in mass (%)” value was 24.20 (9.63) % with Poria placenta (setting [2]); 20.90 (0.23) % in the assay on Poria placenta (TBBF waterborne 0.1% w/w, retention 0.8 kg/m^3); “No Decay” with Poria placenta (TBBF waterborne 1.0% w/w, retention 7.7 kg/m^3); “No Decay” in the assay on Poria placenta (TBBF waterborne 2.0% w/w, retention 15.7 kg/m^3); “No Decay” in the assay on Poria placenta (TBBF waterborne 3.0% w/w, retention 20.8 kg/m^3); 26.87 (7.38) % in the assay with Coniophora puteana (setting [2]). Moreover, the “Corrected mean loss in mass (%)” value in the assay on Coniophora puteana (TBBF waterborne 0.1% w/w, retention 0.8 kg/m^3, some waterlogging) is reported as 24.49 (2.12) (W) %; with Coniophora puteana (TBBF waterborne 1.0% w/w, retention 7.9 kg/m^3), “No Decay”; with Coniophora puteana (TBBF waterborne 2.0% w/w, retention 15.1 kg/m^3), “No Decay”; in the assay with Coniophora puteana (TBBF waterborne 3.0% w/w, retention 23.1 kg/m^3), “No Decay”. In addition, the “Protective Effect” value is on record as 0.8-7.7 kg/m^3 in the assay on Poria placenta and 0.8-7.9 kg/m^3 in the assay with Coniophora puteana.
As to `O=S(=O)(c1cc(Br)c(O)c(Br)c1)c1cc(Br)c(O)c(Br)c1` [TBBS, 4,4′-Sulfonyldi(2,6-dibromophenol)], the “Corrected mean loss in mass (%)” value in the assay on Poria placenta (setting [3]) is reported as “No Decay”; in the assay on Poria placenta (setting [4]) it was “No Decay”; with Poria placenta (TBBS waterborne 1.0% w/w, retention 7.9 kg/m^3), “No Decay”; in the assay with Poria placenta (TBBS waterborne 2.0% w/w, retention 15.3 kg/m^3), “No Decay”; in the assay on Poria placenta (TBBS waterborne 3.0% w/w, retention 25.0 kg/m^3) it was “No Decay”; in the assay on Coniophora puteana (setting [3]), 35.02 (6.61) %. In addition, the “Corrected mean loss in mass (%)” value is recorded as 35.49 (4.92) % with Coniophora puteana (setting [4]); “No Decay” in the assay on Coniophora puteana (TBBS waterborne 1.0% w/w, retention 7.6 kg/m^3); “No Decay” with Coniophora puteana (TBBS waterborne 2.0% w/w, retention 16.1 kg/m^3); “No Decay” in the assay with Coniophora puteana (TBBS waterborne 3.0% w/w, retention 20.2 kg/m^3). For the same compound, the “Protective Effect” value in the assay with Poria placenta was 0.8-7.9 kg/m^3; with Coniophora puteana, 0.8-7.6 kg/m^3.
Consider `Oc1c(Br)cc(C2(c3cc(Br)c(O)c(Br)c3)CCCCC2)cc1Br` [TBBZ, 4,4′-Cyclohexylidenebis(2,6-dibromophenol)], for which the “Corrected mean loss in mass (%)” value is 0.94 (3.19) (W) % in the assay with Poria placenta (setting [5]); 33.47 (15.74) % with Poria placenta (TBBZ waterborne 0.1% w/w, retention 0.8 kg/m^3); “No Decay” in the assay with Poria placenta (TBBZ waterborne 1.0% w/w, retention 5.9 kg/m^3); “No Decay” in the assay on Poria placenta (TBBZ waterborne 2.0% w/w, retention 11.6 kg/m^3); “No Decay” in the assay with Poria placenta (TBBZ waterborne 3.0% w/w, retention 18.6 kg/m^3); 33.57 (7.59) (W) % in the assay with Coniophora puteana (setting [5]). Besides, the “Corrected mean loss in mass (%)” value is 14.30 (—) % in the assay with Coniophora puteana (TBBZ waterborne 1.0% w/w, retention 6.8 kg/m^3); “No Decay” in the assay on Coniophora puteana (TBBZ waterborne 2.0% w/w, retention 11.8 kg/m^3); “No Decay” with Coniophora puteana (TBBZ waterborne 3.0% w/w, retention 17.6 kg/m^3). Moreover, the “Protective Effect” value in the assay with Poria placenta is recorded as 0.8-5.9 kg/m^3; with Coniophora puteana, 0.7-6.8 kg/m^3.

The values are drawn from US20060167115A1, “Compositions for the preservation of timber” (priority 2003, published 2006).
